Experimental data published in publication PMC4456386, “Ligand Recognition of the Major Birch Pollen Allergen Bet v 1 is Isoform Dependent” (PLoS ONE, 2015).
Read-outs that look alike come from different tables or passages of the source.

Key:
Bet v 1a [1] = target: T1, Bet v 1a (Betula pendula, UniProt P15494); assay: 1H-15N HSQC NMR titration (chemical shift perturbation) of 15N-Bet v 1a; assay type: binding, Betula verrucosa; settings: Bet v 1a
T1 construct: made in house
Experimental: (§1) All NMR experiments were performed at 298 K in 50 mM sodium phosphate buffer, 50 mM NaCl, pH 7.0, 10% deuterium oxide (^2H2O) with ^15N-uniformly labelled Bet v 1 isoforms using Bruker Avance 700 MHz and Avance 800 MHz spectrometers with cryogenically cooled triple-resonance probes equipped with pulsed field-gradient capabilities. NMR data were processed using NMRPipe and visualized with NMRViewJ [89]. Three-dimensional ^15N-edited NOESY (nuclear Overhauser enhancement spectroscopy, mixing times 120 ms) experiments to assign chemical shifts were obtained with 500 μM ^15N-labeled samples of Bet v 1 isoform d or m and yielded 91% of assigned residues for Bet v 1d and 89% for Bet v 1m. The sequence-specific assignments of the amide resonances of Bet v 1a are reported elsewhere.
(§2) Interaction of Q3OS with the Bet v 1 isoforms was measured by incubating 700 μM Q3OS with 50 μM of each ^15N-labeled Bet v 1 isoform in 50 mM sodium phosphate, 50 mM NaCl buffer, pH 7.0.
(§3) For titration experiments all other flavonoids were dissolved in deuterated DMSO, while glucose and galactose were dissolved in 50 mM sodium phosphate buffer, 50 mM NaCl, pH 7.0, 10% deuterium oxide and titrated stepwise to a final excess of up to 17-fold to protein samples (ca. 100 μM). […] CSPs for ligand binding were calculated based on Eq (2): […] (2) ΔδHN and ΔδN, chemical shift differences of amide proton and nitrogen resonances, respectively, in ppm.
(§4) K d values for flavonoid binding were determined with NMRViewJ [89]. All analysable amino acid residues that were unaffected by DMSO addition and showing CSPs > 0.08 ppm were fitted to a quadratic binding curve with default settings, and an average K d app was calculated (Table 1 and S1–S3 Tables). The CSPs of all residues showing CSPs > 0.04 ppm were mapped either on models of Bet v 1d and Bet v 1m or on the Bet v 1a structure (pdb code 1BV1, [29]).

Bet v 1m [2] = target: T2, Bet v 1m (Betula pendula, UniProt P43186); assay: 1H-15N HSQC NMR titration (chemical shift perturbation) of 15N-Bet v 1m; assay type: binding, Betula verrucosa; settings: NMR, average of all analysable residues with CSPs > 0.08 ppm, ± standard deviation
T2 construct: made in house
T2 sequence (P43186 whole entry): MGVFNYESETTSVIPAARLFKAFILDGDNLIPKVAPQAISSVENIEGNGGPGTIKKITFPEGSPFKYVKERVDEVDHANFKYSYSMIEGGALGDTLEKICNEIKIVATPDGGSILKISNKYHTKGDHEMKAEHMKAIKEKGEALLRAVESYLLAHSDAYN
Experimental: as §1, §2, §3, §4

Bet v 1d = target: T3, Bet v 1d (Betula pendula, UniProt P43177); assay: 1H-15N HSQC NMR titration (chemical shift perturbation) of 15N-Bet v 1d; assay type: binding, Betula verrucosa
T3 construct: made in house
T3 sequence (P43177 whole entry): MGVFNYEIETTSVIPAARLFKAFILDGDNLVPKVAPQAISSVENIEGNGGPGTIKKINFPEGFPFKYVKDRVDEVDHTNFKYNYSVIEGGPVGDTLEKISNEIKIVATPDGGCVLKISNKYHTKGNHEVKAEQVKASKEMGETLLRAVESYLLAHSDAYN
Experimental: as §1, §2, §3, §4

[3] = tested on: serum IgE binding to surface-coated Bet v 1a, Bet v 1d and Bet v 1m; assay: Indirect ELISA for IgE binding to Bet v 1 isoforms; set-up: species or system human
Text: (§5) Fifteen sera of birch pollen-allergic subjects were collected, tested, and pooled according to the guideline of the European Medicines Agency (EMEA/CHMP/BWP/304831/2007). The serum pool is routinely used for batch-release testing of birch pollen-derived allergenic products at the Paul-Ehrlich-Institut. The same serum pool was used for both, ELISA and mediator release assays.
For IgE-ELISA experiments, Maxisorp plates (Nunc via Fisher Scientific) were coated overnight at room temperature with 50 ng/100 μl recombinant Bet v 1 isoforms a, d, or m with a 5-fold molar excess of quercetin-3-O-sophorose, rutin, quercetin, quercetin-3-O-glucoside, quercetin-3-O-galactoside, or sophorose, respectively, in phosphate-buffered saline (PBS). After blocking with PBS containing 2% bovine serum albumin (BSA) these plates and an uncoated control were incubated with a dilution series of a serum pool of birch-pollen allergic subjects for 1 h at room temperature with PBS containing 0.05% Tween 20 and 0.1% BSA. Allergen-specific human IgE was detected with a horseradish peroxidase-conjugated mouse anti-human IgE antibody (Clone B3102E8, Southern biotech via Biozol, Eching, Germany) diluted 1:1000. 3,3′,5,5′-tetramethylbenzidine (Roth, Karlsruhe) was used as substrate for horseradish peroxidase, and the absorbance at 450 nm was measured after stopping the reaction with 25% H2SO4.

[4] = tested on: humanized rat basophil leukemia (RBL) cells; assay: β-Hexosaminidase release (mediator release) assay; assay type: cell-based
Experimental: as §5
The mediator release assay was performed according to an established protocol. […] After washing, cells were stimulated with serial dilutions of Bet v 1 isoforms a, d, or m in Tyrode's buffer containing […]. For complex formation, the Bet v 1 isoforms were incubated overnight with a 5-fold molar excess of Q3OS, rutin, quercetin, Q3OGlc, Q3OGal, or sophorose, respectively, before stimulating the cells. Degranulation was quantified by photometric measurement of β-hexosaminidase activity in the culture supernatants. The percentage of β-hexosaminidase activity relative to cells lysed with Triton X-100 (Sigma-Aldrich, Steinheim, Germany) was calculated and corrected for spontaneous release (sensitized cells without allergen).

[5] = UV/VIS absorption spectra of unbound flavonoids; assay type: physicochemical; settings: pH 7.0
Experimental: All flavonoids and Bet v 1 isoforms were dissolved in 50 mM sodium phosphate, 50 mM NaCl, 10% (v/v) DMSO, pH 7.0, to a final concentration of 10 to 20 μM in 500 μl. Absorption spectra from 200–800 nm were recorded at 25°C in a 1 cm quartz cuvette (Hellma GmbH) using a 8453 UV-visible spectrophotometer (Agilent).

Bet v 1m [6] = target: T2, Bet v 1m; assay: 1H-15N HSQC NMR titration (chemical shift perturbation) of 15N-Bet v 1m; assay type: binding, Betula verrucosa; settings: 1H-15N HSQC titration, up to 15-fold excess
Bet v 1a [7] = target: T1, Bet v 1a; settings: Fluorescence, read-out: Dissociation constant Kd; cited from earlier work
[8] = 5-fold molar excess of ligand, isoforms a, d, m

T1 sequence (P15494 whole entry): as the sequence (P43177 whole entry) above, with I8T, V31F, N58S, V92I, C113S, V114I, N126D counted along it

IgE-binding capacity ([3]; absence of ligands, pool serum of birch pollen-allergic subjects) | Molecule | Kd per residue (Bet v 1a [1]; one value per residue with Δδnorm > 0.08 ppm (residue named left of the cell), Int. Ex. = intermediate exchange) | Kd (Bet v 1a [1]; NMR, average of all analysable residues with CSPs > 0.08 ppm, ± standard deviation, read-out: Dissociation constant Kd (averaged Kd app)) [nM] | Dissociation constant Kd (averaged Kd app) (Bet v 1m [2]) | binding to Bet v 1d (in words) (Bet v 1d; 1H-15N HSQC titration, up to 15-fold excess) | Dissociation constant Kd (averaged Kd app) (Bet v 1d; NMR, Bet v 1d, average of all analysable residues with CSPs > 0.08 ppm, ± standard deviation) | influence of ligand on IgE binding of Bet v 1 isoforms [3, 8] | influence of ligand on mediator release induced by Bet v 1 isoforms [4, 8] | Absorption maxima, Flavonoid [5] [nm] | binding to Bet v 1m (in words) (Bet v 1m [6]) | Kd (Bet v 1a [7]) [nM] | shift to higher concentration for half-maximum release of β-hexosaminidase in comparison to the other isoforms ([4]; absence of ligands)
– | O=c1c(O[C@@H]2O[C@H](CO)[C@@H](O)[C@H](O)[C@H]2O[C@@H]2O[C@H](CO)[C@@H](O)[C@H](O)[C@H]2O)c(-c2ccc(O)c(O)c2)oc2cc(O)cc(O)c12 [Q3OS, quercetin-3-O-sophoroside] | Int./Slow Ex. | < 1000 | No binding | did not produce significant CSPs | No binding | does not significantly influence | does not significantly influence | 358 | did not lead to significant CSPs | 570 | –
only marginal | Bet v 1d: recombinant hypoallergenic isoform of the major birch pollen allergen Bet v 1 (UniProt P43177) (protein, UniProt P43177 2-160, looked up) Major pollen allergen Bet v …: GVFNYEIETTSVIPAARLFKAFILDGDNLVPKVAPQAISSVENIEGNGGPGTIKKINFPEGFPFKYVKDRVDEVDHTNFKYNYSVIEGGPVGDTLEKISNEIKIVATPDGGCVLKISNKYHTKGNHEVKAEQVKASKEMGETLLRAVESYLLAHSDAYN | – | – | – | – | – | – | – | – | – | – | approximately 10 fold
